Data reported in article PMC10820527, “Synthesis, Characterization, and Investigation of Anti-Inflammatory and Cytotoxic Activities of Novel Thiourea Derivatives of Naproxen” (Pharmaceutics, 2023).

How the values were obtained:
Assay type in all cases: cell-based, human
[1] = tested on: antiapoptotic protein Bcl-2; assay: Assessment of apoptosis: Bcl-2 expression (flow cytometry); details: HeLa cells, 24 h, IC50 concentration, p > 0.05
Description: (§1) The aim of this study was to determine the expression of proteins that play a key role in apoptosis. The level of expression of the proapoptotic protein Bax, antiapoptotic protein Bcl-2, and the percentage of cells containing active caspase-3 was evaluated. […] Additionally, HeLa cells were fixed, permeabilized, and rinsed with ice-cold PBS (Fixation and Permeabilization Kit, eBioscience, San Diego, CA, USA). The cells were treated for 15 min at room temperature with a 1:1000 Bcl-2 fluorescein isothiocyanate (FITC) primary antibody (mhbcl01, Life Technologies, Carlsbad, CA, USA) to stain them. For further labeling, permeabilized HeLa cells were incubated with primary antibodies for active-Bax (N20, sc-493; Santa Cruz Biotech Inc., Dallas, TX, USA) and cleaved caspase-3 (#9661, Cell signaling Technology, Danvers, MA, USA) at a ratio of 1:1000 for 30 min. […] With the FC500 (Beckman Coulter), fluorescence of at least 15,000 events/samples had been measured. Negative control antibodies that matched the isotype were used to normalize the fluorescence intensity. The degree of expression of these proteins was indicated by the mean fluorescence intensities for Bax and Bcl-2 (MFIs), which were computed as the ratio of raw mean channel fluorescence to isotype control levels, respectively. […]

[2] = tested on: HeLa cells; assay: Cell cycle analysis (PI staining, flow cytometry); details: 24 h, IC50 concentration, p < 0.05
Description: The next step in this study was to evaluate whether the rate of division of HeLa tumor cells slows down under the influence of tested compounds. To examine the potential effect of compounds 3 and 8 on the cell cycle of HeLa cells, the cell line was incubated and treated with previously calculated IC50 values. The control population of untreated cells was also harvested and washed in the above-mentioned manner. Furthermore, HeLa cells were harvested, washed with PBS, and fixed with 70% ethanol at +4 °C. Cells were agglomerated and finally resuspended in 1 mL PBS containing RNAse A (500 μg/mL). After 30 min of incubation, cells were stained with 5 μL PI (10 mg/mL PBS). After 15 min of incubation in the dark, the samples were examined using a Beckman Coulter FC500 flow cytometer.

[3] = tested on: HeLa cells; assay: Annexin V/PI flow cytometry (type of cell death)
Description: (§2) The type of cell death induced by compounds 3 and 8 was determined by the annexin V–fluorescein isothiocyanate (FITC)/propidium iodide (PI) Apoptosis Kit (BD Biosciences, Franklin Lakes, NJ, USA). […] Furthermore, tested HeLa cells were trypsinized, washed in PBS, centrifuged, and resuspended in 100 μL of ice-cold binding buffer. The tested cells were then stained with both 10 μL of Annexin V-FITC and 20 μL of […], incubated for 15 min in the dark at room temperature, and 400 μL of binding buffer was added to each tube. The obtained samples were measured with a flow cytometer Cytomics FC500 (Beckman Coulter, Brea, CA, USA). In addition, the obtained data were analyzed using FlowJo V10 Software. Measurements were presented as the representative density plots of Annexin V-FITC and PI staining and the average values of three independent experiments.

[4] = Annexin V/PI flow cytometry (type of cell death); details: human; HeLa cells, 24 h, IC50 concentration; representative plot; read-out: viable cells (Q4, lower left quadrant)
Description: as §2

[5] = tested on: proapoptotic protein Bax; assay: Assessment of apoptosis: active Bax expression (flow cytometry); details: HeLa cells, 24 h, IC50 concentration, p > 0.05
Description: as §1

[6] = tested on: active caspase-3; assay: Assessment of apoptosis: cells containing active caspase-3 (flow cytometry); details: HeLa cells, 24 h, IC50 concentration, p < 0.05
Description: as §1

COc1ccc2cc([C@H](C)C(=O)NC(=S)Nc3ccccc3)ccc2c1 [Compound 8, (S)-2-(6-methoxynaphthalen-2-yl)-N-(phenylcarbamothioyl)propanamide]
Amount of the antiapoptotic protein Bcl-2 (in words) [1]: insignificantly changed | Effect on cell cycle of HeLa cells (in words) [2]: induced G0/G1 phase arrest | Type of HeLa cell death induced (in words) ([3]; 24 h of treatment, p < 0.05): induced apoptosis | late apoptotic cells (Q2, upper right quadrant) ([3]; HeLa cells, 24 h, IC50 concentration, Annexin V-FITC/PI): 1–3% | viability at 24 h [4]: 49.2% | Amount of proapoptotic Bax (in words) [5]: insignificantly changed | Percentage of cells containing active caspase-3 (in words) [6]: increased compared to the untreated cells
